Key:
PTPN2 [1] = target: T1, PTPN2 (Homo sapiens, UniProt P17706); test: HiBiT PTPN2 degradation in 293T.109 (HiBiT-PTPN2) cells, 24 hours; assay type: cell-based; settings: 293T.109 cells
T1 construct: expressed in transfected cells; host or cells: 293T.109 (HiBiT-PTPN2), derived from 293T WT (ATCC)
T1 sequence (P17706 1-415): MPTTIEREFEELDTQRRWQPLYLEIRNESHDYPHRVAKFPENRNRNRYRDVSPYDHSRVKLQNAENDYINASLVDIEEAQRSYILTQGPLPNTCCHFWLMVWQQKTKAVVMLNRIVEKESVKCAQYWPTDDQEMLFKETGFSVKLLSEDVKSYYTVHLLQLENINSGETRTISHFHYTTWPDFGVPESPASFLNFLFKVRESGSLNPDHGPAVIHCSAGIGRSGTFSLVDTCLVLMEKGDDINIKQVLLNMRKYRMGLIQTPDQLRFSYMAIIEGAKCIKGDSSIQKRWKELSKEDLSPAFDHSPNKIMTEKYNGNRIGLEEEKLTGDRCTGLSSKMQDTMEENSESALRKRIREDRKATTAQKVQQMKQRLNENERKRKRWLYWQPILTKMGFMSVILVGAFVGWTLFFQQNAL
Text: Dulbecco's modified Eagle medium (DMEM) without phenol red and fetal bovine serum (FBS) were purchased from Gibco (Grand Island, NY, USA). Nano-Glo® HiBiT Lytic Assay System was purchased from Promega (Medison, WI, USA). 293T. 109 (HiBiT-PTPN2) cell line was generated by ectopically expressing PTPN2 with N-terminal HiBiT fusion tag in 293T WT cell line purchased from ATCC (Manassas, VA, USA). Cell culture flasks and 384-well microplates were acquired from VWR (Radnor, PA, USA).
PTPN2 Degradation Analysis
(§1) PTPN2 degradation was determined based on quantification of luminescent signal using Nano-Glo® HiBiT Lytic Assay kit. Test compounds were added to the 384-well plate from a top concentration of 10 μM with 11 points, half log titration in duplicates. 293T. 109 cells were added into 384-well plates at a cell density of 5000 cells per well. The plates were kept at 37° C. with 5% CO2 for 24 hours. The cells treated in the absence of the test compound were the negative control and the cells without Nano-Glo® HiBiT Lytic reagent were the positive control. After 24-hour incubation, Nano-Glo® HiBiT Lytic Assay reagents were added to the cells. Luminescence was acquired on EnVision™ Multilabel Reader (PerkinElmer, Santa Clara, CA, USA).

PTPN2 [2] = target: T2, PTPN2 (Mus musculus, UniProt Q06180); test: HiBiT PTPN2 degradation in B16F10.4 cells, 24 hours; assay type: cell-based
T2 construct: HiBiT; host or cells: B16F10.4
T2 sequence (Q06180 1-406): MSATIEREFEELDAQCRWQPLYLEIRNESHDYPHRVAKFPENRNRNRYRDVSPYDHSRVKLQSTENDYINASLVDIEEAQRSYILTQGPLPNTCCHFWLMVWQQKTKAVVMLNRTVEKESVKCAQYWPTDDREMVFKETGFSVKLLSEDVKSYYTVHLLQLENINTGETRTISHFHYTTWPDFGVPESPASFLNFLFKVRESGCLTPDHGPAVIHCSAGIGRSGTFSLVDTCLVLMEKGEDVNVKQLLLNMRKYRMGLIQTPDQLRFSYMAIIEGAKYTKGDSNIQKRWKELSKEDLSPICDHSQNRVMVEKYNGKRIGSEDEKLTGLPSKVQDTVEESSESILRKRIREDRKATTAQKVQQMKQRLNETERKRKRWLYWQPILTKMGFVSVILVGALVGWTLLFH
Procedure: as §1

| Structure (SMILES) | DC50 (PTPN2 [1]) [µM] | DC50 (PTPN2 [2]) [µM] |
| --- | --- | --- |
| Cn1c(=O)n(C2CCC(=O)NC2=O)c2ccc(-c3ccc(CC(=O)Nc4ccc5c(F)c(N6CC(=O)NS6(=O)=O)c(O)cc5c4)cc3)c(F)c21 (stereo not drawn) [Degrader 40] | 0.15 to 0.5 | 0.15 to 0.5 |
| Cn1c(=O)n(C2CCC(=O)NC2=O)c2cc(F)c(-c3ccc(CC(=O)Nc4ccc5c(F)c(N6CC(=O)NS6(=O)=O)c(O)cc5c4)cc3)cc21 (stereo not drawn) [Degrader 44] | 0.15 to 0.5 | 0.15 to 0.5 |
| COCCn1c(=O)n(C2CCC(=O)NC2=O)c2ccc(-c3ccc(CC(=O)Nc4ccc5c(F)c(N6CC(=O)NS6(=O)=O)c(O)cc5c4)cc3)cc21 (stereo not drawn) [Degrader 45] | 0.15 to 0.5 | 0.15 to 0.5 |
| Cn1c(=O)n(C2CCC(=O)NC2=O)c2ccc(C3CC4CCC(C3)N4CC(=O)Nc3ccc4c(F)c(N5CC(=O)NS5(=O)=O)c(O)cc4c3)cc21 (stereo not drawn) [Degrader 50] | 0.05 to 0.15 | 0.15 to 0.5 |
| Cn1c(=O)n(C2CCC(=O)NC2=O)c2ccc(C3CC4CCC(C3)N4CC(=O)Nc3ccc4c(F)c(N5CC(=O)NS5(=O)=O)c(O)cc4c3)cc21 (stereo not drawn) [Degrader 51] | 0.05 to 0.15 | 0.15 to 0.5 |
| O=C(CCC(=O)Nc1ccc2c(F)c(N3CC(=O)NS3(=O)=O)c(O)cc2c1)NCc1ccc2c3c(cccc13)C(=O)N2C1CCC(=O)NC1=O (stereo not drawn) [Degrader 54] | 0.15 to 0.5 | ≥ 0.5 |
| Cn1c(=O)n(C2CCC(=O)NC2=O)c2cc(F)c(N3CCN(CC(=O)Nc4ccc5c(F)c(N6CC(=O)NS6(=O)=O)c(O)cc5c4)CC3)cc21 (stereo not drawn) [Degrader 55] | 0.05 to 0.15 | 0.15 to 0.5 |
| Cn1c(=O)n(C2CCC(=O)NC2=O)c2ccc(-c3ccc(CC(=O)Nc4ccc5c(F)c(N6CC(=O)NS6(=O)=O)c(O)cc5c4)cc3F)c(F)c21 (stereo not drawn) [Degrader 56] | 0.15 to 0.5 | 0.05 to 0.15 |
| Cn1c(=O)n(C2CCC(=O)NC2=O)c2ccc(N3CCN(CC(=O)Nc4ccc5c(F)c(N6CC(=O)NS6(=O)=O)c(O)cc5c4)CC3)c(F)c21 (stereo not drawn) [Degrader 57] | 0.05 to 0.15 | 0.15 to 0.5 |
| Cn1c(=O)n(C2CCC(=O)NC2=O)c2ccc(C3CCN(CCNC(=O)c4ccc5c(F)c(N6CC(=O)NS6(=O)=O)c(O)cc5c4)CC3(F)F)cc21 (stereo not drawn) [Degrader 59] | 0.15 to 0.5 | 0.05 to 0.15 |
| Cn1c(=O)n(C2CCC(=O)NC2=O)c2ccc(-c3ccc(CC(=O)Nc4ccc5c(F)c(N6CC(=O)NS6(=O)=O)c(O)cc5c4)cc3)nc21 (stereo not drawn) [Degrader 60] | 0.15 to 0.5 | 0.05 to 0.15 |
| Cn1nc(C2CCC(=O)NC2=O)c2ccc(C3CCN(CCNC(=O)c4ccc5c(F)c(N6CC(=O)NS6(=O)=O)c(O)cc5c4)CC3(F)F)cc21 (stereo not drawn) [Degrader 61] | 0.15 to 0.5 | 0.15 to 0.5 |
| Cn1c(=O)n(C2CCC(=O)NC2=O)c2cccc(N3CCC(CCNC(=O)Nc4ccc5c(F)c(N6CC(=O)NS6(=O)=O)c(O)cc5c4)CC3)c21 (stereo not drawn) [Degrader 62] | 0.15 to 0.5 | 0.15 to 0.5 |
| C[C@H]1CN(CC(=O)Nc2ccc3c(F)c(N4CC(=O)NS4(=O)=O)c(O)cc3c2)CCN1c1cc2c(cc1F)n(C1CCC(=O)NC1=O)c(=O)n2C (stereo partly drawn) [Degrader 65] | 0.15 to 0.5 | ≥ 0.5 |
| C[C@H]1CN(CC(=O)Nc2ccc3c(F)c(N4CC(=O)NS4(=O)=O)c(O)cc3c2)CCN1c1ccc2c(c1F)n(C)c(=O)n2C1CCC(=O)NC1=O (stereo partly drawn) [Degrader 66] | 0.15 to 0.5 | ≥ 0.5 |
| Cn1c(=O)n(C2CCC(=O)NC2=O)c2ccc(N3CCC(O)(CC(=O)N4CC(Oc5ccc6cc(O)c(N7CC(=O)NS7(=O)=O)c(F)c6c5)C4)CC3)cc21 (stereo not drawn) [Degrader 67] | 0.15 to 0.5 | 0.15 to 0.5 |
| Cn1c(=O)n(C2CCC(=O)NC2=O)c2ccc(N3CCC(CC4CC4C(=O)Nc4ccc5c(F)c(N6CC(=O)NS6(=O)=O)c(O)cc5c4)CC3)cc21 (stereo not drawn) [Degrader 68] | 0.05 to 0.15 | 0.05 to 0.15 |

Other lines, results leading:

| DC50 (PTPN2 [1]) [µM] | DC50 (PTPN2 [2]) [µM] | Structure (SMILES) |
| --- | --- | --- |
| < 0.05 | < 0.05 | Cn1c(=O)n(C2CCC(=O)NC2=O)c2ccc(C3CCN(CC(=O)Nc4ccc5c(F)c(N6CC(=O)NS6(=O)=O)c(O)cc5c4)CC3F)cc21 (stereo not drawn) [Degrader 36] |
| 0.05 to 0.15 | 0.05 to 0.15 | Cn1c(=O)n(C2CCC(=O)NC2=O)c2ccc([C@H]3CCN(CC(=O)Nc4ccc5c(F)c(N6CC(=O)NS6(=O)=O)c(O)cc5c4)C[C@@H]3F)cc21 (stereo partly drawn) [Degrader 37] |
| < 0.05 | < 0.05 | Cn1c(=O)n(C2CCC(=O)NC2=O)c2ccc([C@@H]3CCN(CC(=O)Nc4ccc5c(F)c(N6CC(=O)NS6(=O)=O)c(O)cc5c4)C[C@H]3F)cc21 (stereo partly drawn) [Degrader 38] |
| 0.05 to 0.15 | 0.15 to 0.5 | Cn1nc(C2CCC(=O)NC2=O)c2ccc(Oc3ccc(CC(=O)Nc4ccc5c(F)c(N6CC(=O)NS6(=O)=O)c(O)cc5c4)cc3)cc21 (stereo not drawn) [Degrader 39] |
| < 0.05 | 0.05 to 0.15 | Cn1nc(C2CCC(=O)NC2=O)c2ccc(Nc3ccc(CC(=O)Nc4ccc5c(F)c(N6CC(=O)NS6(=O)=O)c(O)cc5c4)cc3F)cc21 (stereo not drawn) [Degrader 41] |
| 0.05 to 0.15 | 0.05 to 0.15 | Cn1c(=O)n(C2CCC(=O)NC2=O)c2ccc(Nc3cnn(CC(=O)Nc4ccc5c(F)c(N6CC(=O)NS6(=O)=O)c(O)cc5c4)c3)cc21 (stereo not drawn) [Degrader 42] |
| < 0.05 | 0.15 to 0.5 | Cn1c(=O)n(C2CCC(=O)NC2=O)c2cc(F)c(N3CCC(CC(=O)Nc4ccc5c(F)c(N6CC(=O)NS6(=O)=O)c(O)cc5c4)CC3)cc21 (stereo not drawn) [Degrader 43] |
| 0.05 to 0.15 | 0.15 to 0.5 | Cn1c(=O)n(C2CCC(=O)NC2=O)c2ccc(N3CCC(CC(=O)Nc4ccc5c(F)c(N6CC(=O)NS6(=O)=O)c(O)cc5c4)CC3)c(F)c21 (stereo not drawn) [Degrader 46] |
| 0.05 to 0.15 | < 0.05 | CCn1c(=O)n(C2CCC(=O)NC2=O)c2ccc(-c3ccc(CC(=O)Nc4ccc5c(F)c(N6CC(=O)NS6(=O)=O)c(O)cc5c4)cc3F)cc21 (stereo not drawn) [Degrader 47] |
| 0.05 to 0.15 | 0.05 to 0.15 | Cn1nc(C2CCC(=O)NC2=O)c2ccc(Nc3ccc(CC(=O)Nc4ccc5c(F)c(N6CC(=O)NS6(=O)=O)c(O)cc5c4)cc3)cc21 (stereo not drawn) [Degrader 48] |
| 0.05 to 0.15 | 0.05 to 0.15 | CCn1c(=O)n(C2CCC(=O)NC2=O)c2ccc(-c3ccc(CC(=O)Nc4ccc5c(F)c(N6CC(=O)NS6(=O)=O)c(O)cc5c4)cc3)cc21 (stereo not drawn) [Degrader 49] |
| < 0.05 | 0.05 to 0.15 | Cn1c(=O)n(C2CCC(=O)NC2=O)c2ccc(C3CCN(CCNC(=O)Nc4ccc5c(F)c(N6CC(=O)NS6(=O)=O)c(O)cc5c4)CC3)cc21 (stereo not drawn) [Degrader 52] |
| < 0.05 | < 0.05 | O=C1CCC(N2C(=O)c3cccc4c(N5CCC(CCNC(=O)Nc6ccc7c(F)c(N8CC(=O)NS8(=O)=O)c(O)cc7c6)CC5)ccc2c34)C(=O)N1 (stereo not drawn) [Degrader 53] |
| < 0.05 | 0.15 to 0.5 | Cn1c(=O)n(C2CCC(=O)NC2=O)c2cc(F)c(N3CCC(CCNC(=O)Nc4ccc5c(F)c(N6CC(=O)NS6(=O)=O)c(O)cc5c4)CC3)cc21 (stereo not drawn) [Degrader 58] |
| < 0.05 | < 0.05 | CCn1c(=O)n(C2CCC(=O)NC2=O)c2ccc(C3CCN([C@H](CO)C(=O)Nc4ccc5c(F)c(N6CC(=O)NS6(=O)=O)c(O)cc5c4)CC3)cc21 (stereo partly drawn) [Degrader 63] |
| < 0.05 | 0.05 to 0.15 | CCn1c(=O)n(C2CCC(=O)NC2=O)c2ccc(C3CCN([C@@H](CO)C(=O)Nc4ccc5c(F)c(N6CC(=O)NS6(=O)=O)c(O)cc5c4)CC3)cc21 (stereo partly drawn) [Degrader 64] |

From patent publication US20240424111A1, “Degrader Compounds and Uses Thereof” (CALICO LIFE SCIENCES LLC, priority 2021, published 2024)
